# Results as given in patent publication EP0014443B1, “Dilutable alkyl-benzimidazolecarbamate formulation, process for its preparation and its use as biocide” (RIEDEL-DE HAEN AKTIENGESELLSCHAFT, priority 1979, dated 1980).
# Where two headings read alike, the source gives them in different places.
# Key:
# Solubility in solvents = type: physicochemical; details: read-out: Löslichkeit
# From the text: Zum Vergleich : Die Löslichkeit von BCM beträgt in Wasser 6 ppm und in Butanol 600 ppm.
# holzverblauende Pilze = assay: Münden strip method (Mündener Streifenmethode) on wood against blue-stain fungi; details: in usual wood preservative formulation (alkyd resin, Testbenzin 60); 25 GT product of Beispiel 1 in 1000 GT, or 0,25 % BCM as comparison
# From the text: 25 GT eines Produktes gemäß Beispiel 1 werden zu 975 GT einer üblichen Holzschutzmittelformulierung gegeben, die zusammengesetzt ist aus 140 GT eines handelsüblichen Alkyldharzes, 4 GT Zinknaphthenat als Trockner, 4 GT eines handelsüblichen Hautverhütungsmittels, 30 GT Butyldiglykol und 797 GT Testbenzin 60.
# Die Wirksamkeit der so biozid ausgerüsteten Holzschutzmittelformulierung gegen holzverblauende Pilze wird nach der Mündener Streifenmethode [H. Butin, Farbe und Lack, 71 (1965), 373] geprüft. Es ergibt sich eine bewuchsfreie Eindringtiefe von 3 bis 4 mm.
# Zum Vergleich wird die oben angegebene übliche Holzschutzmittelformulierung mit 0,25 % Benzimidazolcarbaminsäuremethylester versetzt und unter gleichen Bedingungen geprüft. Es werden nur Eindringtiefen von 0,5 mm festgestellt.
structure (smiles),measurement,setting,value
"COC(=O)Nc1nc2ccccc2[nH]1 [II, Benzimidazolcarbaminsäuremethylester]",solubility,"Solubility in solvents; organic solvent or mixture, in Butanol",600 µg/mL
same,solubility,"Solubility in solvents; water, in Wasser",6 µg/mL
same,bewuchsfreie Eindringtiefe,holzverblauende Pilze,"0,5 mm"
